Results: patent US20240293439A1, “TREATMENT REGIMENS” (NuCana plc, priority 2017, published 2024)
Where “and” joins values, the source holds several entries; their conditions need not be identical. Equal values may be shown once. Entries after “also recorded” stand apart in the source; their conditions may differ.

Assays:
[1] = tested on: thymidylate synthase (TS); assay: Intracellular dTMP, TS and dUMP levels in PBMCs of treated subjects (UPLC-MS, Western blot); format: in vivo, patients; conditions: for intracellular TS level and/or activity / intracellular dTMP level: cells (PBMCs) of treated subjects
Experimental: Remove sample from the centrifuge carefully.
(§1) Vortex-mix for 30 seconds. Leave sample on ice for 15 minutes.
UPLC-MS for was used to detect dTMP Western blot was used to detect TS.

[2] = comparison value; cited from earlier work
[3] = patients treated with 5FU; cited from earlier work
[4] = molecular target: T1, dihydropyrimidine dehydrogenase (DPD) (Homo sapiens, UniProt Q12882); conditions: catabolism in the liver; cited from earlier work
T1 construct: This is balanced by catabolism by dihydropyrimidine dehydrogenase (DPD) in the liver; host or cells: liver (of patients)
T1 sequence (Q12882 4-1025): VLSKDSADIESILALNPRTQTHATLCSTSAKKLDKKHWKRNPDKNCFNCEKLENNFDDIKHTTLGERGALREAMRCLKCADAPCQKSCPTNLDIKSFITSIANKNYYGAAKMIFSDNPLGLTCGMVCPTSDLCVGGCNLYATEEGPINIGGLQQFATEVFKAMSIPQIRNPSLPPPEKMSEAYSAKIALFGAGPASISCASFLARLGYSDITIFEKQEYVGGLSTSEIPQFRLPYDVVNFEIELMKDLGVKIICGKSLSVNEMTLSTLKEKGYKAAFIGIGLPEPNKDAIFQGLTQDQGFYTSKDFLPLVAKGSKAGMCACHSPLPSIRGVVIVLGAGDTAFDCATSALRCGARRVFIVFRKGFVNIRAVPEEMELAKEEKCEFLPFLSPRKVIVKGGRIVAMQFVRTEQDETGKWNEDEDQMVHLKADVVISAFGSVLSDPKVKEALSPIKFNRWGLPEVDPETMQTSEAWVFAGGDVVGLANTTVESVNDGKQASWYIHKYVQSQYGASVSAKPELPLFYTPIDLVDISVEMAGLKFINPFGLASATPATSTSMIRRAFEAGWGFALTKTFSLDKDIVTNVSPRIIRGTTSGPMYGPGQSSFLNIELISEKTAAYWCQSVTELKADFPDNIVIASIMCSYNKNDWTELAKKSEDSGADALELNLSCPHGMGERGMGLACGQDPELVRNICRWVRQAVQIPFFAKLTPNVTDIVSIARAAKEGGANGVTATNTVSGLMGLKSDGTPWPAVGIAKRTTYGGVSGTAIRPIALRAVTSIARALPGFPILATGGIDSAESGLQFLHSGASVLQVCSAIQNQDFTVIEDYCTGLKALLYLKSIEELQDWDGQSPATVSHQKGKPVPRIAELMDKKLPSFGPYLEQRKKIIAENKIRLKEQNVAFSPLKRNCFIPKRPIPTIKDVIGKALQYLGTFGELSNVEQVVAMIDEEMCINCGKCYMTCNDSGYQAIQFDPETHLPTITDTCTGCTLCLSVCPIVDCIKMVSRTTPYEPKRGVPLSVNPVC

[5] = in vivo
Experimental: The patients received NUC-3373, administered as a 30-minute to 2 hour intravenous injection on days 1, 8, 15 and 22 of a 28-day cycle regimen.
The cohorts treated to date received 125 mg/m^2, 250 mg/m^2, 500 mg/m^2 or 750 mg/m^2 NUC-3373 per administration.
Pharmacokinetic analysis of blood samples of the patients was then carried out.
Blood samples were collected on days 1 and 15 of a treatment cycle:
The blood samples should arrive in the lab within 2 hours of collection. Collect 8 ml of blood into CPT tubes (blood tubes should be centrifuged within 2 hours of blood collection). Remix the blood sample immediately prior to centrifugation by gently inverting the tube 8 to 10 times. Set centrifuge so that the start and finish is set to a slow acceleration (without break). Centrifuge at 18° C. for 20 minutes at 1,500 g. Remove sample from the centrifuge carefully. This will result in five layers: plasma (first); whitish cell (PBMC) layer [second]; polyester gel [third]; density solution [fourth] and, remaining granulocytes and RBCs [fifth]. Aspirate approximately half of the plasma without disturbing the cell layer. Collect the PBMC layer with a Pasteur Pipette and transfer to a 50 ml tube and add cold PBS (4° C.) to a final volume of 40 ml. Divide between two 50 ml tubes (20 ml per tube) and centrifuge for 5 minutes at 4° C. at 1,500 g. […]

[6] = NuTide:301 Phase 1 study: pharmacokinetic analysis of NUC-3373 in blood plasma; format: in vivo; conditions: human, iv, patients with advanced solid tumors, 125-750 mg/m^2, 1:1 mixture of S and R epimers
Experimental: (§2) All patients have metastatic spread.
NUC-3373 is presented as a single dose intravenous injection in a clear vial containing 250 mg/ml NUC-3373 in a solution of dimethylacetamide (DMA) and normal saline in the ratio of 80:20. The product is a clear yellow solution, free from visible particles.
In the study all patients were treated with a 1:1 mixture of NUC-3373 S and R epimers.
Centrifuge the 4 ml blood sample at 1,200 g at 18° C. for 10 minutes. Using a sterile plastic pipette (pastette), remove the resulting plasma and transfer ˜1.0 ml plasma into each of 2 cryovials (2 ml).

[7] = NuTide:301 study: detection of toxic byproducts FBAL and dhFU by UPLC-MS/MS after NUC-3373 administration; format: in vivo, patients; conditions: at the doses studied
Experimental: as §2, §1
UPLC-MS/MS was used to detect dhFU and FBAL

[8] = NuTide:301 clinical trial: occurrence of hand-foot syndrome; format: in vivo; conditions: 36 patients treated with NUC-3373, so far
From the text: as §2

[9] = formal dog toxicology studies; cited from earlier work

half-life of intracellular FUDR monophosphate ([5]; human) | detectability of intracellular FUDR monophosphate at late time point [5] | SMILES | intracellular TS level and/or activity [1] | intracellular dTMP level [1] | plasma half-life of 5FU [2] | patients developing hand-foot syndrome [3] | fraction of 5-fluorouracil broken down by DPD [4] | half-life [6] | dihydrofluorouracil (dhFU) detected following NUC-3373 administration [7] | α-fluoro-β-alanine (FBAL) detected following NUC-3373 administration [7] | intracellular dUMP level ([1]; cells of treated subjects) | patients who developed hand-foot syndrome [8] | tolerability compared with 5FU [9]
– | – | O=c1[nH]cc(F)c(=O)[nH]1 [5FU, 5-fluorouracil] | not observed | not observed | 8 to 14 min | 30-60% and 40-60% | More than 85% | – | – | – | – | – | –
14.9 h | still detectable | O=c1[nH]c(=O)n([C@H]2C[C@H](O)[C@@H](COP(=O)(O)O)O2)cc1F [FUDR monophosphate] | – | – | – | – | – | – | – | – | – | – | –
– | – | C[C@H](NP(=O)(OC[C@H]1O[C@@H](n2cc(F)c(=O)[nH]c2=O)CC1O)Oc1cccc2ccccc12)C(=O)OCc1ccccc1 (stereo partly drawn) [NUC-3373, 5-fluoro-2′-deoxyuridine-5′-O-[1-naphthyl (benzoxy-L-alaninyl)] phosphate] | deplete | deplete | – | – | – | 9.7 h | undetectable | undetectable; also recorded: very low levels | increased accumulation | none | significantly better tolerated than 5FU
